Test results as given in patent US8703768B2, “Nitrogen containing heteroaryl compounds” (Hoffmann-La Roche Inc., priority 2010, dated 2014).

Molecular target: human PDE10A (Homo sapiens (Human), UniProt Q9Y233)
Test: human PDE10A full length Scintillation Proximity Assay (SPA)
Assay type: biochemical
Settings: 50 nM cGMP and 50 nM [3H]-cGMP, 20 minutes at room temperature; read-out: PDE10A inhibition IC50
In short: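 Radiometric SPA read-out: after 20 min at room temperature with [^3H]-cGMP/cGMP substrate, zinc sulphate (18 mM) bead stop reagent added and counts read after 1 h. Non-specific signal defined without enzyme; full-length protein used.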

human PDE10A, sequence (Q9Y233 other isoform, or with tags, fused parts or gaps): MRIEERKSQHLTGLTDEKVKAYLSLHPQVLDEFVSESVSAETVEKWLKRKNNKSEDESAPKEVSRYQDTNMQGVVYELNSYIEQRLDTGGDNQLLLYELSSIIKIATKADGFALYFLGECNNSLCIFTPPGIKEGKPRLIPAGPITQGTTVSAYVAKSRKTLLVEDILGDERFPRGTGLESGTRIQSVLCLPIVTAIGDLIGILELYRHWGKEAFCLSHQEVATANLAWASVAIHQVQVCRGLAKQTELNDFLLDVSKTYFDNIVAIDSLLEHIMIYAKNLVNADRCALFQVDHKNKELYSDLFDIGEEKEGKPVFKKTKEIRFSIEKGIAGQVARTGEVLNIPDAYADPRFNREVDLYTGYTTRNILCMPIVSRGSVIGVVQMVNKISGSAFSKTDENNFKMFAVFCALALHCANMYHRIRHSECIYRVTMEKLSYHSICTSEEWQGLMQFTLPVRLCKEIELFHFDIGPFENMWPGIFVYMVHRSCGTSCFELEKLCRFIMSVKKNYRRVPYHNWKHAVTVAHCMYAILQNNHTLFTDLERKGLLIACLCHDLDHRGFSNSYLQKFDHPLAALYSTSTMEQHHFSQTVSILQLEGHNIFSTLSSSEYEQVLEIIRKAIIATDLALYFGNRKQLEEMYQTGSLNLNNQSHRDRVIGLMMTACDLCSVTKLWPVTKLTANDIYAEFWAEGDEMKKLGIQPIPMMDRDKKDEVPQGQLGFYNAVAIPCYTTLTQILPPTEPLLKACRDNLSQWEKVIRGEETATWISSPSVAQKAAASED

SMILES | IC50 [nM]
CC(C)N(C)C(=O)c1nn(C)cc1NC(=O)c1nc(C2CC2)ccc1Nc1cncnc1 [Example 20, 6-Cyclopropyl-3-(pyrimidin-5-ylamino)-pyridine-2-carboxylic acid [3-(isopropyl-methyl-carbamoyl)-1-methyl-1H-pyrazol-4-yl]-amide] | 22.1
COC(C)(C)CNC(=O)c1c(NC(=O)c2nc(C3CC3)cnc2Nc2cncnc2)cnn1C [Example 151, 6-Cyclopropyl-3-(pyrimidin-5-ylamino)-pyrazine-2-carboxylic acid [5-(2-methoxy-2-methyl-propylcarbamoyl)-1-methyl-1H-pyrazol-4-yl]-amide] | 2.7
COCCN(C)C(=O)c1ncncc1NC(=O)c1nc(C2CC2)cnc1Nc1cncnc1 [Example 118, 5-{[6-Cyclopropyl-3-(pyrimidin-5-ylamino)-pyrazine-2-carbonyl]-amino}-pyrimidine-4-carboxylic acid (2-methoxy-ethyl)-methyl-amide] | 89.7
CN(C)C1CCN(C(=O)c2nn(C)cc2NC(=O)c2nc(C3CC3)ccc2Nc2cncnc2)C1 (stereo not shown) [Example 37, 6-Cyclopropyl-3-(pyrimidin-5-ylamino)-pyridine-2-carboxylic acid [3-(3-dimethylamino-pyrrolidine-1-carbonyl)-1-methyl-1H-pyrazol-4-yl]-amide] | 18.1
CN(CCO)C(=O)c1c(NC(=O)c2nc(C3CC3)cnc2Nc2cncnc2)cnn1C [Example 226, 6-Cyclopropyl-3-(pyrimidin-5-ylamino)-pyrazine-2-carboxylic acid [5-[(2-hydroxy-ethyl)-methyl-carbamoyl]-1-methyl-1H-pyrazol-4-yl]-amide] | 54.3
CC(C)(O)CNC(=O)c1ncccc1NC(=O)c1nc(C2CC2)cnc1Nc1cncnc1 [Example 98, 6-Cyclopropyl-3-(pyrimidin-5-ylamino)-pyrazine-2-carboxylic acid [2-(2-hydroxy-2-methyl-propylcarbamoyl)-pyridin-3-yl]-amide] | 0.4
CC1(NC(=O)c2ccncc2NC(=O)c2nc(C3CC3)cnc2Nc2cncnc2)COC1 [Example 121, 6-Cyclopropyl-3-(pyrimidin-5-ylamino)-pyrazine-2-carboxylic acid [4-(3-methyl-oxetan-3-ylcarbamoyl)-pyridin-3-yl]-amide] | 5.8
CN(C(=O)c1nn(C)cc1NC(=O)c1nc(C2CC2)ccc1Nc1cncnc1)C1CCCC1 [Example 19, 6-Cyclopropyl-3-(pyrimidin-5-ylamino)-pyridine-2-carboxylic acid [3-(cyclopentyl-methyl-carbamoyl)-1-methyl-1H-pyrazol-4-yl]-amide] | 8.7
O=C(Nc1cccnc1C(=O)N1CCCCC1)c1nc(C2CC2)cnc1Nc1cncnc1 [Example 195, 6-Cyclopropyl-3-(pyrimidin-5-ylamino)-pyrazine-2-carboxylic acid [2-(piperidine-1-carbonyl)-pyridin-3-yl]-amide] | 16.4
CC(C)OCCNC(=O)c1ccncc1NC(=O)c1nc(C2CC2)cnc1Nc1cncnc1 [Example 99, 6-Cyclopropyl-3-(pyrimidin-5-ylamino)-pyrazine-2-carboxylic acid [4-(2-isopropoxy-ethylcarbamoyl)-pyridin-3-yl]-amide] | 2.6
Cn1ncc(NC(=O)c2nc(C3CC3)cnc2Nc2cncnc2)c1C(=O)N1CCCO1 [Example 335, 6-Cyclopropyl-3-(pyrimidin-5-ylamino)-pyrazine-2-carboxylic acid [5-(isoxazolidine-2-carbonyl)-1-methyl-1H-pyrazol-4-yl]-amide] | 0.8
CC(C)(O)CNC(=O)c1ccncc1NC(=O)c1nc(C2CC2)cnc1Nc1cncnc1 [Example 105, 6-Cyclopropyl-3-(pyrimidin-5-ylamino)-pyrazine-2-carboxylic acid [4-(2-hydroxy-2-methyl-propylcarbamoyl)-pyridin-3-yl]-amide] | 1.1
CNC(=O)c1c(NC(=O)c2nc(N3CCCC3)cnc2Nc2cncnc2)cnn1C [Example 289, 3-(Pyrimidin-5-ylamino)-6-pyrrolidin-1-yl-pyrazine-2-carboxylic acid (1-methyl-5-methylcarbamoyl-1H-pyrazol-4-yl)-amide] | 24
CC1CCC(C)N1C(=O)c1nn(C)cc1NC(=O)c1nc(C2CC2)ccc1Nc1cncnc1 (stereo not shown) [Example 35, 6-Cyclopropyl-3-(pyrimidin-5-ylamino)-pyridine-2-carboxylic acid [3-(2,5-dimethyl-pyrrolidine-1-carbonyl)-1-methyl-1H-pyrazol-4-yl]-amide] | 45.7
CNC(=O)c1c(NC(=O)c2nc(C3CC3)cnc2Nc2cnccn2)cnn1C [Example 200, 6-Cyclopropyl-3-(pyrazin-2-ylamino)-pyrazine-2-carboxylic acid (1-methyl-5-methylcarbamoyl-1H-pyrazol-4-yl)-amide] | 426
CC1CCCN1C(=O)c1c(NC(=O)c2nc(C3CC3)cnc2Nc2cncnc2)cnn1C (stereo not shown) [Example 239, 6-Cyclopropyl-3-(pyrimidin-5-ylamino)-pyrazine-2-carboxylic acid [1-methyl-5-(2-methyl-pyrrolidine-1-carbonyl)-1H-pyrazol-4-yl]-amide] | 47.7
Cn1cc(NC(=O)c2nc(C3CC3)ccc2Nc2cncnc2)c(C(=O)N2CCC(F)(F)C2)n1 [Example 36, 6-Cyclopropyl-3-(pyrimidin-5-ylamino)-pyridine-2-carboxylic acid [3-(3,3-difluoro-pyrrolidine-1-carbonyl)-1-methyl-1H-pyrazol-4-yl]-amide] | 3.2
CNC(=O)c1cc(OCC(C)(C)O)ccc1NC(=O)c1nc(C2CC2)cnc1Nc1cncnc1 [Example 338, 6-Cyclopropyl-3-(pyrimidin-5-ylamino)-pyrazine-2-carboxylic acid [4-(2-hydroxy-2-methyl-propoxy)-2-methylcarbamoyl-phenyl]-amide] | 2.1
CNC(=O)c1cn2cc(-c3ccccc3)nc2cc1NC(=O)c1nc(C2CC2)ccc1Nc1cncnc1 [Example 81, 7-{[6-Cyclopropyl-3-(pyrimidin-5-ylamino)-pyridine-2-carbonyl]-amino}-2-phenyl-imidazo[1,2-a]pyridine-6-carboxylic acid methylamide] | 0.4
CNC(=O)c1c(NC(=O)c2nc(N3CCOCC3)cnc2Nc2cncnc2)cnn1C [Example 297, 6-Morpholin-4-yl-3-(pyrimidin-5-ylamino)-pyrazine-2-carboxylic acid (1-methyl-5-methylcarbamoyl-1H-pyrazol-4-yl)-amide] | 4.1
O=C(Nc1cnccc1C(=O)N1CCC(F)(F)C1)c1nc(C2CC2)ccc1Nc1cncnc1 [Example 56, 6-Cyclopropyl-3-(pyrimidin-5-ylamino)-pyridine-2-carboxylic acid [4-(3,3-difluoro-pyrrolidine-1-carbonyl)-pyridin-3-yl]-amide] | 65.7

More lines, now with the values ahead:

IC50 [nM] | SMILES
0.4 | O=C(NCCO)c1ncccc1NC(=O)c1nc(C2CC2)cnc1Nc1cncnc1 [Example 271, 6-Cyclopropyl-3-(pyrimidin-5-ylamino)-pyrazine-2-carboxylic acid [2-(2-hydroxy-ethylcarbamoyl)-pyridin-3-yl]-amide]
2.8 | Cn1ncc(NC(=O)c2nc(C3CC3)cnc2Nc2cncnc2)c1C(=O)NCCF [Example 171, 6-Cyclopropyl-3-(pyrimidin-5-ylamino)-pyrazine-2-carboxylic acid [5-(2-fluoro-ethylcarbamoyl)-1-methyl-1H-pyrazol-4-yl]-amide]
2.9 | Cn1ncc(NC(=O)c2nc(C3CC3)cnc2Nc2cncnc2)c1C(=O)NCC(F)F [Example 145, 6-Cyclopropyl-3-(pyrimidin-5-ylamino)-pyrazine-2-carboxylic acid [5-(2,2-difluoro-ethylcarbamoyl)-1-methyl-1H-pyrazol-4-yl]-amide]
7 | CNC(=O)c1c(NC(=O)c2nc([C@@H]3CCOC3)cnc2Nc2cncnc2)cnn1C [Example 267, 3-(Pyrimidin-5-ylamino)-6-(S)-tetrahydro-furan-3-yl-pyrazine-2-carboxylic acid (1-methyl-5-methylcarbamoyl-1H-pyrazol-4-yl)-amide]
1.6 | CC(C)(O)CNC(=O)c1cc(Cl)ncc1NC(=O)c1nc(C2CC2)cnc1Nc1cncnc1 [Example 260, 6-Cyclopropyl-3-(pyrimidin-5-ylamino)-pyrazine-2-carboxylic acid [6-chloro-4-(2-hydroxy-2-methyl-propylcarbamoyl)-pyridin-3-yl]-amide]
148 | Cn1ncc(NC(=O)c2nc(C3CC3)cnc2Nc2cncnc2)c1C(=O)N1CCOCC1 [Example 179, 6-Cyclopropyl-3-(pyrimidin-5-ylamino)-pyrazine-2-carboxylic acid [1-methyl-5-(morpholine-4-carbonyl)-1H-pyrazol-4-yl]-amide]
16.3 | CNC(=O)c1nn(C)cc1NC(=O)c1nc(C2CCOC2)cnc1Nc1cncnc1 (stereo not shown) [Example 102, 3-(Pyrimidin-5-ylamino)-6-(tetrahydro-furan-3-yl)-pyrazine-2-carboxylic acid (1-methyl-3-methylcarbamoyl-1H-pyrazol-4-yl)-amide]
3.1 | CC(C)Cc1ncc(Nc2cncnc2)c(C(=O)Nc2cccnc2C(=O)NCC(C)(C)O)n1 [Example 331, 2-Isobutyl-5-(pyrimidin-5-ylamino)-pyrimidine-4-carboxylic acid [2-(2-hydroxy-2-methyl-propylcarbamoyl)-pyridin-3-yl]-amide]
3.2 | CNC(=O)c1c(NC(=O)c2nc(C3CC3)cnc2Nc2cncnc2)cnn1CCO [Example 264, 6-Cyclopropyl-3-(pyrimidin-5-ylamino)-pyrazine-2-carboxylic acid [1-(2-hydroxy-ethyl)-5-methylcarbamoyl-1H-pyrazol-4-yl]-amide]
7.5 | CN(CCO)C(=O)c1nn(C)cc1NC(=O)c1nc(C2CC2)ccc1Nc1cncnc1 [Example 40, 6-Cyclopropyl-3-(pyrimidin-5-ylamino)-pyridine-2-carboxylic acid {3-[(2-hydroxy-ethyl)-methyl-carbamoyl]-1-methyl-1H-pyrazol-4-yl}-amide]
